Results as given in patent publication US20080176862A1, “New Compounds 617” (ASTRAZENECA AB, priority 2006, published 2008).
Where a name gives a salt, the structure may show the parent alone.

Molecular target: T1, human β-Secretase (soluble part, AA1-AA460; sBACE-Fc) (Homo sapiens, UniProt P56817)
T1 construct: The soluble part of the human β-Secretase (AA1-AA460) was cloned into the ASP2-Fc10-1-IRES-GFP-neoK mammalian expression vector; made in house
Assay: TR-FRET assay
Assay type: biochemical
Details: substrate (Europium)CEVNLDAEFK(Qsy7) 100 nM, pH 4.5, 15 min at RT; read-out: IC50 (nM) in TR-FRET assay

T1 sequence (P56817 22-460): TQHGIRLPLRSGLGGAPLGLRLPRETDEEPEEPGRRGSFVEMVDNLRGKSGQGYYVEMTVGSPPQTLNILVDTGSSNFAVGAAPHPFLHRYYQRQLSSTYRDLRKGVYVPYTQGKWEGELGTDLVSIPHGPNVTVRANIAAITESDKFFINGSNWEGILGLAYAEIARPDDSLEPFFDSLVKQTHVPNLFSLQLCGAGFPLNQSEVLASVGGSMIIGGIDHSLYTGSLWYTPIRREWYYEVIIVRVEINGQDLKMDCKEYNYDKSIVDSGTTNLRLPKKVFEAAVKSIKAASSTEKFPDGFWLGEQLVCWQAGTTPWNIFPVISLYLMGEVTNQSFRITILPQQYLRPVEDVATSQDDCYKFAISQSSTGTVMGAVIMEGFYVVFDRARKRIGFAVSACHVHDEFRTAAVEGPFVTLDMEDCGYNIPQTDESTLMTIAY

Row | IC50 [nM] | SMILES
1 | 23 | COc1cc(OS(C)(=O)=O)cc(-c2cc(C3(c4ccc(OC(F)F)cc4)N=C(N)N(C)C3=O)ccc2F)c1 (centres unmarked) [Example 69, 5′-{2-Amino-4-[4-(difluoromethoxy)phenyl]-1-methyl-5-oxo-4,5-dihydro-1H-imidazol-4-yl}-2′-fluoro-5-methoxybiphenyl-3-yl methanesulfonate hydrochloride]
2 | 234 | Cc1noc(C)c1S(=O)(=O)Oc1ccc(C2(c3ccc(F)c(-c4cncnc4)c3)N=C(N)N(C)C2=O)cc1 (centres unmarked) [Example 280, 4-[2-amino-4-(4-fluoro-3-pyrimidin-5-ylphenyl)-1-methyl-5-oxo-4,5-dihydro-1H-imidazol-4-yl]phenyl 3,5-dimethylisoxazole-4-sulfonate]
3 | 1260 | COc1cc(OS(C)(=O)=O)cc(-c2cc(C3(C4CCOCC4)N=C(N)N(C)C3=O)ccc2F)c1 (centres unmarked) [Example 192, 5′-[2-Amino-1-methyl-5-oxo-4-(tetrahydro-2H-pyran-4-yl)-4,5-dihydro-1H-imidazol-4-yl]-2′-fluoro-5-methoxybiphenyl-3-yl methanesulfonate hydrochloride]
4 | 859 | CN1C(=O)C(c2cccc(OS(=O)(=O)c3ccc(Cl)s3)c2)(c2ccc(F)c(Br)c2)N=C1N (centres unmarked) [Example 231, 3-[2-Amino-4-(3-bromo-4-fluorophenyl)-1-methyl-5-oxo-4,5-dihydro-1H-imidazol-4-yl]phenyl 5-chlorothiophene-2-sulfonate]
5 | 395 | CCCS(=O)(=O)Oc1cccc(C2(c3ccc(F)c(-c4cc(Cl)cc(Cl)c4)c3)N=C(N)N(C)C2=O)c1 (centres unmarked) [Example 100, 3-[2-Amino-4-(3′,5′-dichloro-6-fluorobiphenyl-3-yl)-1-methyl-5-oxo-4,5-dihydro-1H-imidazol-4-yl]phenyl propane-1-sulfonate]
6 | 395 | CCN1C(=O)C(c2ccc(OS(C)(=O)=O)cc2)(c2ccc(F)c(-c3cccc(OC)c3)c2)N=C1N (centres unmarked) [Example 163, 4-[2-Amino-4-(6-fluoro-3′-methoxybiphenyl-3-yl)-1-ethyl-5-oxo-4,5-dihydro-1H-imidazol-4-yl]phenyl methanesulfonate 0.25acetate]
7 | 150 | COc1cccc(-c2cc(C3(c4cccc(OS(=O)(=O)N(C)C)c4)N=C(N)N(C)C3=O)ccc2F)c1 (centres unmarked) [Example 112, 3-[2-Amino-4-(6-fluoro-3′-methoxybiphenyl-3-yl)-1-methyl-5-oxo-4,5-dihydro-1H-imidazol-4-yl]phenyl dimethylsulfamate]
8 | 82 | CCC(C)(C)c1ccc(S(=O)(=O)Oc2cccc(C3(c4ccc(F)c(-c5cncnc5)c4)N=C(N)N(C)C3=O)c2)cc1 (centres unmarked) [Example 234, 3-[2-Amino-4-(4-fluoro-3-pyrimidin-5-ylphenyl)-1-methyl-5-oxo-4,5-dihydro-1H-imidazol-4-yl]phenyl 4-(1,1-dimethylpropyl)benzenesulfonate]
9 | 163 | CN1C(=O)C(c2ccc(OS(=O)(=O)C(F)(F)F)cc2)(c2ccc(F)c(-c3cc(Cl)ccn3)c2)N=C1N (centres unmarked) [Example 149, 4-{2-Amino-4-[3-(4-chloropyridin-2-yl)-4-fluorophenyl]-1-methyl-5-oxo-4,5-dihydro-1H-imidazol-4-yl}phenyl trifluoromethanesulfonate 0.75 acetate]
10 | 365 | COc1cccc(-c2cc(C3(c4ccc(OS(C)(=O)=O)cc4)N=C(N)N(C)C3=O)ccn2)c1 (centres unmarked) [Example 39, 4-{2-Amino-4-[2-(3-methoxyphenyl)pyridin-4-yl]-1-methyl-5-oxo-4,5-dihydro-1H-imidazol-4-yl}phenyl methanesulfonate 0.25 acetate]
11 | 46 | CN1C(=O)C(c2cccc(OS(=O)(=O)c3ccc(-n4cccn4)cc3)c2)(c2ccc(F)c(-c3cncnc3)c2)N=C1N (centres unmarked) [Example 238, 3-[2-Amino-4-(4-fluoro-3-pyrimidin-5-ylphenyl)-1-methyl-5-oxo-4,5-dihydro-1H-imidazol-4-yl]phenyl 4-(1H-pyrazol-1-yl)benzenesulfonate]
12 | 1460 | CN1C(=O)C(c2cccc(OS(=O)(=O)c3ccc(-n4cccn4)cc3)c2)(c2ccc(F)c(Br)c2)N=C1N (centres unmarked) [Example 227, 3-[2-Amino-4-(3-bromo-4-fluorophenyl)-1-methyl-5-oxo-4,5-dihydro-1H-imidazol-4-yl]phenyl 4-(1H-pyrazol-1-yl)benzenesulfonate]
13 | 35 | CCCS(=O)(=O)Oc1ccc(C2(c3ccc(F)c(-c4cncc(OC)c4)c3)N=C(N)N(C)C2=O)cc1 (centres unmarked) [Example 129, 4-{2-Amino-4-[4-fluoro-3-(5-methoxypyridin-3-yl)phenyl]-1-methyl-5-oxo-4,5-dihydro-1H-imidazol-4-yl}phenyl propane-1-sulfonate hydrochloride]
14 | 68 | CN1C(=O)C(c2ccc(OS(=O)(=O)c3c(Cl)nc4sccn34)cc2)(c2ccc(F)c(-c3cccnc3)c2)N=C1N (centres unmarked) [Example 286]
15 | 107 | CN1C(=O)C(c2ccc(OS(=O)(=O)C(F)(F)F)cc2)(c2ccc(F)c(-c3cccnc3)c2)N=C1N (centres unmarked) [Example 141, 4-[2-Amino-4-(4-fluoro-3-pyridin-3-ylphenyl)-1-methyl-5-oxo-4,5-dihydro-1H-imidazol-4-yl]phenyl trifluoromethanesulfonate 0.5 acetate]
16 | 379 | CN1C(=O)C(c2ccc(OS(C)(=O)=O)cc2)(c2ccc(F)c(-c3cncs3)c2)N=C1N (centres unmarked) [Example 188, 4-{2-Amino-4-[4-fluoro-3-(1,3-thiazol-5-yl)phenyl]-1-methyl-5-oxo-4,5-dihydro-1H-imidazol-4-yl}phenyl methanesulfonate hydrochloride]
17 | 89 | Cc1cc(C2(c3cccc(-c4cc(Cl)cc(OS(C)(=O)=O)c4)c3)N=C(N)N(C)C2=O)cc(C)n1 (centres unmarked) [Example 306, 3′-(2-Amino-4-(2,6-dimethylpyridin-4-yl)-1-methyl-5-oxo-4,5-dihydro-1H-imidazo-4-yl)-5-chlorobiphenyl-3-yl methanesulfonate hydrochloride]
18 | 186 | COc1cccc(-c2cc(C3(c4cccc(OS(=O)(=O)C(C)C)c4)N=C(N)N(C)C3=O)ccc2F)c1 (centres unmarked) [Example 108, 3-[2-Amino-4-(6-fluoro-3′-methoxybiphenyl-3-yl)-1-methyl-5-oxo-4,5-dihydro-1H-imidazol-4-yl]phenyl propane-2-sulfonate]
19 | 33 | CN1C(=O)C(c2cccc(OS(=O)(=O)c3ccccc3)c2)(c2ccc(F)c(-c3cncnc3)c2)N=C1N (centres unmarked) [Example 133, 3-[2-Amino-4-(4-fluoro-3-pyrimidin-5-ylphenyl)-1-methyl-5-oxo-4,5-dihydro-1H-imidazol-4-yl]phenyl benzenesulfonate hydrochloride]
20 | 459 | CN1C(=O)C(c2ccc(OS(=O)(=O)C(F)(F)F)cc2)(c2ccc(F)c(-c3cncs3)c2)N=C1N (centres unmarked) [Example 187, 4-{2-Amino-4-[4-fluoro-3-(1,3-thiazol-5-yl)phenyl]-1-methyl-5-oxo-4,5-dihydro-1H-imidazol-4-yl}phenyl trifluoromethanesulfonate hydrochloride]
21 | 150 | CN1C(=O)C(c2ccc(OS(=O)(=O)C(F)(F)F)cc2)(c2ccc(F)c(-c3cncc(F)c3)c2)N=C1N (centres unmarked) [Example 145, 4-{2-amino-4-[4-fluoro-3-(5-fluoropyridin-3-yl)phenyl]-1-methyl-5-oxo-4,5-dihydro-1H-imidazol-4-yl}phenyl trifluoromethanesulfonate 0.5 acetate]
22 | 129 | Cc1nn(C)c(Cl)c1S(=O)(=O)Oc1cccc(C2(c3ccc(F)c(Br)c3)N=C(N)N(C)C2=O)c1 (centres unmarked) [Example 230, 3-[2-Amino-4-(3-bromo-4-fluorophenyl)-1-methyl-5-oxo-4,5-dihydro-1H-imidazol-4-yl]phenyl 5-chloro-1,3-dimethyl-1H-pyrazole-4-sulfonate]
23 | 26 | COc1cc(OS(C)(=O)=O)cc(-c2cccc(C3(c4ccnc(Cl)c4)N=C(N)N(C)C3=O)c2)c1 (centres unmarked) [Example 312, 2-Amino-5-(2-chloropyridin-4-yl)-5-[3-(3-methoxy-5-methylsulfonyloxy-phenyl)phenyl]-3-methyl-imidazol-4-one hydrochloride]
24 | 239 | CCCS(=O)(=O)Oc1cccc(C2(c3ccc(F)c(-c4cccc(Cl)c4)c3)N=C(N)N(C)C2=O)c1 (centres unmarked) [Example 98, 3-[2-Amino-4-(3′-chloro-6-fluorobiphenyl-3-yl)-1-methyl-5-oxo-4,5-dihydro-1H-imidazol-4-yl]phenyl propane-1-sulfonate]
25 | 284 | CN1C(=O)C(c2cccc(OS(C)(=O)=O)c2)(c2ccc(F)c(C3=CCCC3)c2)N=C1N (centres unmarked) [Example 194, 3-[2-Amino-4-(3-cyclopent-1-en-1-yl-4-fluorophenyl)-1-methyl-5-oxo-4,5-dihydro-1H-imidazol-4-yl]phenyl methanesulfonate hydrochloride]
26 | 228 | CN1C(=O)C(c2cccc(OS(C)(=O)=O)c2)(c2ccc(F)c(-c3cccc(Cl)c3)c2)N=C1N (centres unmarked) [Example 91, 3-[2-Amino-4-(3′-chloro-6-fluorobiphenyl-3-yl)-1-methyl-5-oxo-4,5-dihydro-1H-imidazol-4-yl]phenyl methanesulfonate]
27 | 183 | CCC(C)(C)c1ccc(S(=O)(=O)Oc2ccc(C3(c4ccc(F)c(-c5cncnc5)c4)N=C(N)N(C)C3=O)cc2)cc1 (centres unmarked) [Example 276, 4-[2-Amino-4-(4-fluoro-3-pyrimidin-5-ylphenyl)-1-methyl-5-oxo-4,5-dihydro-1H-imidazol-4-yl]phenyl 4-(1,1-dimethylpropyl)benzenesulfonate]
28 | 330 | CN1C(=O)C(c2ccc(OS(C)(=O)=O)cc2)(c2ccc(F)c(C3=CCCCC3)c2)N=C1N (centres unmarked) [Example 299, 4-[2-Amino-4-(3-cyclohex-1-en-1-yl-4-fluorophenyl)-1-methyl-5-oxo-4,5-dihydro-1H-imidazol-4-yl]phenyl methanesulfonate 0.5 acetate]
29 | 19 | CN1C(=O)C(c2cccc(OS(=O)(=O)c3ccc4c(c3)CCC4)c2)(c2ccc(F)c(-c3cncnc3)c2)N=C1N (centres unmarked) [Example 239, 3-[2-Amino-4-(4-fluoro-3-pyrimidin-5-ylphenyl)-1-methyl-5-oxo-4,5-dihydro-1H-imidazol-4-yl]phenyl indane-5-sulfonate]
